Measured values: PubChem BioAssay AID248 (DTP/NCI, 2004)
Several values for one entry are separate records, joined by “and”; a condition that tells them apart may be missing. Identical values can stand only once. Inconclusive results and toxic doses are left out. Rule as the data show it: active = T/C of 150% or more; inactive = T/C below 125%.

Test system: L1210 leukemia ip in BDF1 mice, survival T/C
Assay: NCI In Vivo Anticancer Drug Screen. Data for tumor model L1210 Leukemia (intraperitoneal) in B6D2F1 (BDF1) mice
Conditions: endpoint: mean survival time, higher = longer survival
Summary of the method: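 Tumor cells were implanted, animals were treated, and survival was followed. The result divides the treated measurement by the vehicle-control measurement.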

[1] = dose: 100.0 mg/kg/injection, schedule: Q01DX001 (ip), vehicle: carboxymethylcellulose (CMC)
[2] = dose: 200.0 mg/kg/injection, schedule: Q01DX001 (ip), vehicle: carboxymethylcellulose (CMC)
[3] = dose: 400.0 mg/kg/injection, schedule: Q01DX001 (ip), vehicle: carboxymethylcellulose (CMC)
[4] = dose: 100.0 mg/kg/injection, schedule: Q04DX002 (ip), vehicle: Klucel (hydroxypropylcellulose) (HPC)
[5] = dose: 200.0 mg/kg/injection, schedule: Q04DX002 (ip), vehicle: Klucel (hydroxypropylcellulose) (HPC)
[6] = dose: 400.0 mg/kg/injection, schedule: Q04DX002 (ip), vehicle: Klucel (hydroxypropylcellulose) (HPC)
[7] = dose: 100.0 mg/kg/injection, schedule: Q01DX001 (ip), vehicle: Klucel (hydroxypropylcellulose) (HPC)
[8] = dose: 200.0 mg/kg/injection, schedule: Q01DX001 (ip), vehicle: Klucel (hydroxypropylcellulose) (HPC)
[9] = dose: 100.0 mg/kg/injection, schedule: Q04DX003 (ip), vehicle: saline with Tween-80
[10] = dose: 200.0 mg/kg/injection, schedule: Q04DX003 (ip), vehicle: saline with Tween-80
[11] = dose: 400.0 mg/kg/injection, schedule: Q04DX003 (ip), vehicle: saline with Tween-80
[12] = dose: 100.0 mg/kg/injection, schedule: Q01DX009 (ip), vehicle: Klucel (hydroxypropylcellulose) (HPC)
[13] = dose: 200.0 mg/kg/injection, schedule: Q01DX009 (ip), vehicle: Klucel (hydroxypropylcellulose) (HPC)
[14] = dose: 400.0 mg/kg/injection, schedule: Q01DX009 (ip), vehicle: Klucel (hydroxypropylcellulose) (HPC)
[15] = dose: 75.0 mg/kg/injection, schedule: Q01DX001 (ip), vehicle: carboxymethylcellulose (CMC)
[16] = dose: 75.0 mg/kg/injection, schedule: Q01DX001 (ip), vehicle: Klucel (hydroxypropylcellulose) (HPC)
[17] = dose: 150.0 mg/kg/injection, schedule: Q01DX001 (ip), vehicle: Klucel (hydroxypropylcellulose) (HPC)
[18] = dose: 300.0 mg/kg/injection, schedule: Q01DX001 (ip), vehicle: Klucel (hydroxypropylcellulose) (HPC)
[19] = dose: 100.0 mg/kg/injection, schedule: Q04DX002 (ip), vehicle: saline with Tween-80
[20] = dose: 200.0 mg/kg/injection, schedule: Q04DX002 (ip), vehicle: saline with Tween-80
[21] = dose: 100.0 mg/kg/injection, schedule: Q01DX009 (ip), vehicle: saline with Tween-80
[22] = dose: 200.0 mg/kg/injection, schedule: Q01DX009 (ip), vehicle: saline with Tween-80
[23] = dose: 100.0 mg/kg/injection, schedule: Q04DX003 (ip), vehicle: Klucel (hydroxypropylcellulose) (HPC)
[24] = dose: 200.0 mg/kg/injection, schedule: Q04DX003 (ip), vehicle: Klucel (hydroxypropylcellulose) (HPC)
[25] = dose: 400.0 mg/kg/injection, schedule: Q04DX003 (ip), vehicle: Klucel (hydroxypropylcellulose) (HPC)

Measured: T/C

NC(CS/C(Cl)=C/Cl)C(=O)O (stereo unspecified)
inactive: dose: 1.5 mg/kg/injection, schedule: Q01DX009 (ip), vehicle: saline 101 % of control | dose: 3.0 mg/kg/injection, schedule: Q01DX009 (ip), vehicle: saline 106 % of control | dose: 6.0 mg/kg/injection, schedule: Q01DX009 (ip), vehicle: saline 104 % of control | dose: 12.0 mg/kg/injection, schedule: Q01DX009 (ip), vehicle: saline 98 % of control | dose: 17.0 mg/kg/injection, schedule: Q01DX009 (ip), vehicle: saline 101 % of control | dose: 27.0 mg/kg/injection, schedule: Q01DX009 (ip), vehicle: saline 95 % of control

CC1CC(C)(C)S(=O)(=O)O1 (stereo unspecified)
inactive: dose: 50.0 mg/kg/injection, schedule: Q01DX001 (ip), vehicle: carboxymethylcellulose (CMC) 107 % of control | [1] 98 % of control | [2] 109 % of control | [3] 102 % of control

Cc1ccc(N(C)CC#CCOc2ccc(Br)cc2)cc1
inactive: [4] 105 % of control | [5] 99 % of control | [6] 99 % of control

O=C1c2ccccc2C(=O)N1CCCCCCCCCCCCCCN1C(=O)c2ccccc2C1=O
inactive: [7] 94 % of control | [8] 94 % of control

Cc1cc(C)cc(C(C)(C)C)c1
inactive: [9] 92 % of control | [10] 92 % of control | [11] 95 % of control

O=C(O)c1c(Br)c(Br)c(Br)c(Br)c1C(=O)Nc1cccc(C(F)(F)F)c1
inactive: [12] 107 % of control | [13] 108 % of control | [14] 107 % of control

Clc1ccc2c3c(cccc13)CC2
inactive: [15] 97 % of control | dose: 150.0 mg/kg/injection, schedule: Q01DX001 (ip), vehicle: carboxymethylcellulose (CMC) 97 % of control | dose: 300.0 mg/kg/injection, schedule: Q01DX001 (ip), vehicle: carboxymethylcellulose (CMC) 97 % of control

CCOC(=O)C1=C(O)c2c(sc(C)c2-c2ccccc2)N(S(=O)(=O)c2ccc(C)cc2)CC1
inactive: dose: 50.0 mg/kg/injection, schedule: Q04DX003 (ip), vehicle: saline with Tween-80 98 % of control | [9] 93 % of control | [10] 93 % of control | [11] 98 % of control

CC(=O)c1ccccc1C(C)c1ccc2cccc(F)c2c1 (stereo unspecified)
inactive: [16] 96 % of control | [17] 100 % of control | [18] 102 % of control

CCOC(=O)c1cc(Cl)ccc1O
inactive: [19] 89 % of control | [20] 92 % of control | dose: 400.0 mg/kg/injection, schedule: Q04DX002 (ip), vehicle: saline with Tween-80 92 % of control

CCCCN(CCCC)P(=S)(OCC)OCC
inactive: [9] 100 % of control | [10] 102 % of control | [11] 104 % of control

O=C1C2OC2(c2ccccc2)C(=O)C2OC12c1ccccc1 (stereo unspecified)
inactive: [16] 96 % of control | [17] 87 % of control | [18] 91 % of control

Cc1ccc(CNc2ccc(I)cc2)cc1
inactive: [21] 96 % of control | [22] 96 % of control | dose: 400.0 mg/kg/injection, schedule: Q01DX009 (ip), vehicle: saline with Tween-80 98 % of control

CCOC(=O)c1cc(Br)cc(Br)c1N/N=[N+](\C)[O-]
inactive: dose: 50.0 mg/kg/injection, schedule: Q01DX009 (ip), vehicle: saline with Tween-80 105 % of control | [21] 98 % of control | [22] 110 % of control

CCOC(=O)C(C)C1=CCCc2c(C)ccc(C)c21 (stereo unspecified)
inactive: [12] 91 % of control | [23] 98 % of control | [13] 94 % of control | [24] 97 % of control | [14] 94 % of control | [25] 101 % of control

O=C(NC/C(Cl)=C/Cl)Oc1cccc2ccccc12
inactive: dose: 75.0 mg/kg/injection, schedule: Q01DX009 (ip), vehicle: Klucel (hydroxypropylcellulose) (HPC) 107 % of control | dose: 150.0 mg/kg/injection, schedule: Q01DX009 (ip), vehicle: Klucel (hydroxypropylcellulose) (HPC) 104 % of control | dose: 300.0 mg/kg/injection, schedule: Q01DX009 (ip), vehicle: Klucel (hydroxypropylcellulose) (HPC) 98 % of control

ClCC1CC2C=CC1C2 (stereo unspecified)
inactive: dose: 12.5 mg/kg/injection, schedule: Q01DX009 (ip), vehicle: Klucel (hydroxypropylcellulose) (HPC) 100 % of control | dose: 25.0 mg/kg/injection, schedule: Q01DX009 (ip), vehicle: Klucel (hydroxypropylcellulose) (HPC) 100 % of control | dose: 25.0 mg/kg/injection, schedule: Q04DX002 (ip), vehicle: saline with Tween-80 102 % of control | dose: 50.0 mg/kg/injection, schedule: Q01DX009 (ip), vehicle: Klucel (hydroxypropylcellulose) (HPC) 93 % of control and 98 % of control | dose: 50.0 mg/kg/injection, schedule: Q04DX002 (ip), vehicle: saline with Tween-80 88 % of control

Cc1ccc(N=Cc2cccc([N+](=O)[O-])c2)cc1
inactive: [7] 100 % of control | [23] 98 % of control | [8] 94 % of control | [24] 100 % of control | dose: 400.0 mg/kg/injection, schedule: Q01DX001 (ip), vehicle: Klucel (hydroxypropylcellulose) (HPC) 91 % of control | [25] 103 % of control

O=C(O)c1c(O)c(Br)cc(Br)c1O
inactive: dose: 100.0 mg/kg/injection, schedule: Q01DX001 (ip), vehicle: other 109 % of control | dose: 200.0 mg/kg/injection, schedule: Q01DX001 (ip), vehicle: other 104 % of control | dose: 400.0 mg/kg/injection, schedule: Q01DX001 (ip), vehicle: other 90 % of control

COC(=O)COc1ccc(Cl)c2ccccc12
inactive: dose: 50.0 mg/kg/injection, schedule: Q04DX002 (ip), vehicle: Klucel (hydroxypropylcellulose) (HPC) 89 % of control | [4] 96 % of control | [5] 99 % of control and 105 % of control | [6] 92 % of control

CCCCCCCC(=O)N1C=CN(C(=O)CCCCCCC)C1
inactive: dose: 30.0 mg/kg/injection, schedule: Q01DX001 (ip), vehicle: saline 100 % of control | dose: 100.0 mg/kg/injection, schedule: Q01DX001 (ip), vehicle: saline 94 % of control | dose: 300.0 mg/kg/injection, schedule: Q01DX001 (ip), vehicle: saline 94 % of control

CCCCCCCC(C)NCCO (stereo unspecified)
inactive: [15] 98 % of control

Cc1ccc(S(=O)(=O)C[n+]2ccccc2)cc1
inactive: [19] 98 % of control | [20] 94 % of control

C=CCC(=O)OCC
inactive: dose: 222.0 mg/kg/injection, schedule: Q01DX Z (ip), vehicle: saline 94 % of control | dose: 333.0 mg/kg/injection, schedule: Q01DX Z (ip), vehicle: saline 108 % of control | dose: 500.0 mg/kg/injection, schedule: Q01DX Z (ip), vehicle: saline 94 % of control

Oc1ccc(/C=N\Nc2ccccn2)c(O)c1
inactive: [12] 88 % of control | [13] 91 % of control

COc1cccc(CC2=NCCc3cc(OC)c(OC)cc32)c1
inactive: dose: 25.0 mg/kg/injection, schedule: Q01DX009 (ip), vehicle: saline 103 % of control | dose: 50.0 mg/kg/injection, schedule: Q01DX009 (ip), vehicle: saline 101 % of control | dose: 100.0 mg/kg/injection, schedule: Q01DX009 (ip), vehicle: saline 97 % of control | dose: 100.0 mg/kg/injection, schedule: Q04DX003 (ip), vehicle: saline 98 % of control

O=C(O)c1ccccc1/C=N/NC(=O)C(O)(c1ccccc1)c1ccccc1
inactive: [1] 114 % of control | [2] 101 % of control | [3] 103 % of control
